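Where inhibition never reached the appropriate level, the endpoint shown equals the highest concentration tested. Otherwise, values were interpolated linearly from a five-concentration, 48-hour dose response in 96-well plates. GI50 = concentration required for 50% inhibition of growth.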 Active and inactive are the calls of the source. No stated cut-off is given here; in the data, active = GI50 up to about 1.1 µM and inactive = higher.
Tests used:
Assay in all cases: NCI tumour cell line growth inhibition, 48 h
HCT-116 = test system: HCT-116
LOX IMVI = test system: LOX IMVI
K562 = test system: K562
CCRF-CEM = test system: CCRF-CEM
UACC-62 = test system: UACC-62
ACHN = test system: ACHN
UACC-257 = test system: UACC-257
SF-295 = test system: SF-295
SNB-19 = test system: SNB-19
HOP-92 = test system: HOP-92
NCI-H226 = test system: NCI-H226
MCF7 = test system: MCF7
MDA-MB-435 = test system: MDA-MB-435
NCI-H522 = test system: NCI-H522
HCC 2998 = test system: HCC 2998
TK-10 = test system: TK-10
KM12 = test system: KM12
MDA-MB-231 = test system: MDA-MB-231
EKVX = test system: EKVX
UO-31 = test system: UO-31
RPMI-8226 = test system: RPMI-8226
Hs-578T = test system: Hs-578T
HOP-62 = test system: HOP-62
OVCAR-3 = test system: OVCAR-3
MOLT-4 = test system: MOLT-4
OVCAR-8 = test system: OVCAR-8
SN12C = test system: SN12C
MDA-N = test system: MDA-N
NCI-H23 = test system: NCI-H23
A549 = test system: A549
SR = test system: SR
Malme-3M = test system: Malme-3M
PC-3 = test system: PC-3
COLO 205 = test system: COLO 205
HT-29 = test system: HT-29
SK-MEL-28 = test system: SK-MEL-28
M14 = test system: M14
SK-MEL-5 = test system: SK-MEL-5
SF-268 = test system: SF-268
OVCAR-5 = test system: OVCAR-5
HL-60 = test system: HL-60
NCI/ADR-RES = test system: NCI/ADR-RES
IGROV-1 = test system: IGROV-1
SW-620 = test system: SW-620
SK-OV-3 = test system: SK-OV-3
CAKI-1 = test system: CAKI-1
SNB-75 = test system: SNB-75
786-0 = test system: 786-0
RXF 393 = test system: RXF 393
SF-539 = test system: SF-539
DU-145 = test system: DU-145

Measured: GI50

CCC(=O)ONC(=O)Cn1ccc([N+](=O)[O-])n1
inactive: HCT-116 > 100 µM | LOX IMVI > 100 µM | K562 > 100 µM | CCRF-CEM > 100 µM | UACC-62 > 100 µM | ACHN > 100 µM | UACC-257 > 100 µM | SF-295 > 100 µM | SNB-19 > 100 µM | HOP-92 > 100 µM | NCI-H226 > 100 µM | MCF7 > 100 µM | MDA-MB-435 > 100 µM | NCI-H522 > 100 µM | HCC 2998 > 100 µM | TK-10 > 100 µM | KM12 > 100 µM | MDA-MB-231 > 100 µM | EKVX > 100 µM | UO-31 > 100 µM | RPMI-8226 > 100 µM | Hs-578T > 100 µM | HOP-62 > 100 µM | OVCAR-3 > 100 µM | MOLT-4 > 100 µM | OVCAR-8 > 100 µM | SN12C > 100 µM | MDA-N > 100 µM | NCI-H23 > 100 µM | A549 > 100 µM | SR > 100 µM | Malme-3M > 100 µM | PC-3 > 100 µM | COLO 205 > 100 µM | HT-29 > 100 µM | SK-MEL-28 > 100 µM | M14 > 100 µM | SK-MEL-5 > 100 µM | SF-268 > 100 µM | OVCAR-5 > 100 µM | HL-60 > 100 µM | NCI/ADR-RES > 100 µM | IGROV-1 > 100 µM | SW-620 > 100 µM | SK-OV-3 > 100 µM | CAKI-1 > 100 µM | SNB-75 > 100 µM | 786-0 > 100 µM | RXF 393 > 100 µM | SF-539 > 100 µM | DU-145 > 100 µM

From ChEMBL document CHEMBL1201862, “PubChem BioAssay data set” (2004)
